Test results reported in US10508085B2, “Compounds and methods for IDO and TDO modulation, and indications therefor” (Plexxikon Inc., priority 2016, dated 2019).

What was measured:
[1] = target: T1, Human Indoleamine 2,3-dioxygenase (IDO) (Homo sapiens, UniProt P14902); experiment: Human IDO enzymatic assay (kynurenine level); format: biochemical; conditions: 6 nM IDO, 10 μM L-Trp; geometric mean; read-out: IDO1 GMean: IC50 (μM) (Biochemical Assay)
T1 construct: His tag (N); made in house; host or cells: E. coli
Procedure, shortened: (§1)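 N-terminally His-tagged enzymes expressed in E. coli were run in 50 mM sodium phosphate pH 6.5 with 10 mM ascorbate, catalase and Tween 20. IDO: 6 nM enzyme, 10 μM L-Trp, 5 μM methylene blue, 20 min RT. TDO: 1 nM enzyme, 350 μM L-Trp, 0.4 μM methylene blue, 70 min RT.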

[2] = target: T2, Human Tryptophan 2,3-dioxygenase (TDO) (Homo sapiens, UniProt P48775); experiment: Human TDO enzymatic assay (kynurenine level); format: biochemical; conditions: 1 nM TDO, 350 μM L-Trp; geometric mean; read-out: TDO GMean: IC50 (μM) (Biochemical Assay)
T2 construct: His tag (N); made in house; host or cells: E. coli
Procedure, shortened: as §1

[3] = target: T3, human IDO (IDO1-expressing HEK293 cells) (Homo sapiens, UniProt P14902); experiment: Cell based kynurenine assay, IDO1-expressing HEK293 cell clones; conditions: IDO1-expressing HEK293 cells, 24 hours, geometric mean; read-out: HEK293 IDO1 Kynurenine GMean IC50 (μM) (Cellular Assay)
T3 construct: expressed in transfected cells
Procedure, shortened: (§2)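 HEK293 clones stably expressing human IDO1 or human TDO (CMV promoter), 2.5×10^4 cells/well, given serial compound dilutions for 24 h. Kynurenine measured in supernatant; inhibition relative to cell/0.2% DMSO and media-only controls. IC50 by nonlinear regression.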

[4] = target: T4, human TDO (TDO-expressing HEK293 cells) (Homo sapiens, UniProt P48775); experiment: Cell based kynurenine assay, TDO-expressing HEK293 cell clones; conditions: TDO-expressing HEK293 cells, 24 hours, geometric mean; read-out: HEK293 TDO Kynurenine GMean IC50 (μM) (Cellular Assay)
T4 construct: expressed in transfected cells
Procedure, shortened: as §2

Measured: IC50

T3 sequence (P14902 whole entry): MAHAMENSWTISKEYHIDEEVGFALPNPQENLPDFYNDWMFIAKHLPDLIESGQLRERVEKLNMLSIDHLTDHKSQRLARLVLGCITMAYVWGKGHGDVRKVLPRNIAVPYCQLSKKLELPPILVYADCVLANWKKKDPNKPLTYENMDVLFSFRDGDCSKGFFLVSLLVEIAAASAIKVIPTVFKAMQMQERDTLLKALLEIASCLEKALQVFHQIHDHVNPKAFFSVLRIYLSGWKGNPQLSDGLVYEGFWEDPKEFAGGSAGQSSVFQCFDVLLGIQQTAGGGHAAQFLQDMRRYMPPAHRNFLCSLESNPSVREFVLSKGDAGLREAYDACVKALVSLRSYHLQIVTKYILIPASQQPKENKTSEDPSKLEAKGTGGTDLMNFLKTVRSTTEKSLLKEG
T1 sequence (P14902 whole entry): as above
T4 sequence (P48775 whole entry): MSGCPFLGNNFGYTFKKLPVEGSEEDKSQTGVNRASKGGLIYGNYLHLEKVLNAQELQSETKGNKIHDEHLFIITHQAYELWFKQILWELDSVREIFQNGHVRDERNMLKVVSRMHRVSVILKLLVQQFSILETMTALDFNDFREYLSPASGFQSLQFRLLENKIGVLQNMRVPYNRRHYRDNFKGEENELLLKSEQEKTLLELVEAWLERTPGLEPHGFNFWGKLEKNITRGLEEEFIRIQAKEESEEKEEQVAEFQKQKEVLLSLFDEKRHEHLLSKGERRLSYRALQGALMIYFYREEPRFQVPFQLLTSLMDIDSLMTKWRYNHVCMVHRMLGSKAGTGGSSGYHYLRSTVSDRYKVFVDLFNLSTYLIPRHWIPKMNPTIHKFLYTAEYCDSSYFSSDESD
T2 sequence (P48775 whole entry): as above

CN(C)CC(=O)N1CCC(C(C)(C)[C@H](O)c2cc(Cl)cc3cn[nH]c23)CC1 [Compound P-0547, (S)-1-(4-(1-(5-chloro-1H-indazol-7-yl)-1-hydroxy-2-methylpropan-2-yl)piperidin-1-yl)-2-(dimethylamino) ethan-1-one]
0.0001 to 10 µM: all assays above

CC(C)(C1CCN(C(=O)c2ccc(Cl)cn2)CC1)[C@H](O)c1cc(Cl)cc2cn[nH]c12 [Compound P-0548, (S)-(4-(1-(5-chloro-1H-indazol-7-yl)-1-hydroxy-2-methylpropan-2-yl)piperidin-1-yl)(5-chloropyridin-2-yl)methanone]
0.0001 to 10 µM: all assays above

CCNC(=O)N1CCC(C(C)(C)[C@H](O)c2cc(Cl)cc3cn[nH]c23)CC1 [Compound P-0550, (S)-4-(1-(5-chloro-1H-indazol-7-yl)-1-hydroxy-2-methylpropan-2-yl)-N-ethylpiperidine-1-carboxamide]
0.0001 to 10 µM: all assays above

CC(C)(C1CCN(C(=O)NC2CC2)CC1)[C@H](O)c1cc(Cl)cc2cn[nH]c12 [Compound P-0551, (S)-4-(1-(5-chloro-1H-indazol-7-yl)-1-hydroxy-2-methylpropan-2-yl)-N-cyclopropylpiperidine-1-carboxamide]
0.0001 to 10 µM: all assays above

CC(C)(C1CCN(C(=O)NC2CCC2)CC1)[C@H](O)c1cc(Cl)cc2cn[nH]c12 [Compound P-0552, (S)-4-(1-(5-chloro-1H-indazol-7-yl)-1-hydroxy-2-methylpropan-2-yl)-N-cyclobutylpiperidine-1-carboxamide]
0.0001 to 10 µM: all assays above

COCCCNC(=O)N1CCC(C(C)(C)[C@H](O)c2cc(Cl)cc3cn[nH]c23)CC1 [Compound P-0553, (S)-4-(1-(5-chloro-1H-indazol-7-yl)-1-hydroxy-2-methylpropan-2-yl)-N-(3-methoxypropyl) piperidine-1-carboxamide]
0.0001 to 10 µM: all assays above

CC(C)(C1CCN(C(=O)Nc2cccnc2)CC1)[C@H](O)c1cc(Cl)cc2cn[nH]c12 [Compound P-0554, (S)-4-(1-(5-chloro-1H-indazol-7-yl)-1-hydroxy-2-methylpropan-2-yl)-N-(pyridin-3-yl)piperidine-1-carboxamide]
0.0001 to 10 µM: all assays above

CC(C)(C1CCN(C(=O)NC(=O)c2ccccc2)CC1)[C@H](O)c1cc(Cl)cc2cn[nH]c12 [Compound P-0555, (S)-N-benzoyl-4-(1-(5-chloro-1H-indazol-7-yl)-1-hydroxy-2-methylpropan-2-yl)piperidine-1-carboxamide]
0.0001 to 10 µM: all assays above

CC(C)(C1CCN(C(=O)NCCS(C)(=O)=O)CC1)[C@H](O)c1cc(Cl)cc2cn[nH]c12 [Compound P-0556, (S)-4-(1-(5-chloro-1H-indazol-7-yl)-1-hydroxy-2-methylpropan-2-yl)-N-(2-(methylsulfonyl)ethyl)piperidine-1-carboxamide]
0.0001 to 10 µM: all assays above

CCS(=O)(=O)N1CCC(C(C)(C)[C@H](O)c2cc(Cl)cc3cn[nH]c23)CC1 [Compound P-0557, (S)-1-(5-chloro-1H-indazol-7-yl)-2-(1-(ethylsulfonyl)piperidin-4-yl)-2-methylpropan-1-ol]
0.0001 to 10 µM: all assays above

CC(C)(C1CCN(C(=O)Nc2ccc(F)nc2)CC1)C(O)c1cc(Cl)cc2cn[nH]c12 (centres unmarked) [Compound P-0558, 4-(1-(5-chloro-1H-indazol-7-yl)-1-hydroxy-2-methylpropan-2-yl)-N-(6-fluoropyridin-3-yl)piperidine-1-carboxamide]
0.0001 to 10 µM: all assays above

CC(C)(C1CCN(C(=O)Nc2ccc(F)nc2)CC1)[C@H](O)c1cc(Cl)cc2cn[nH]c12 [Compound P-0559, (S)-4-(1-(5-chloro-1H-indazol-7-yl)-1-hydroxy-2-methylpropan-2-yl)-N-(6-fluoropyridin-3-yl)piperidine-1-carboxamide]
0.0001 to 10 µM: all assays above

CC(C)(C1CCN(C(=O)NCC2CC2)CC1)[C@H](O)c1cc(Cl)cc2cn[nH]c12 [Compound P-0560, (S)-4-(1-(5-chloro-1H-indazol-7-yl)-1-hydroxy-2-methylpropan-2-yl)-N-(cyclopropylmethyl) piperidine-1-carboxamide]
0.0001 to 10 µM: all assays above

CC(C)(C1CCN(C(=O)NCCC(F)(F)F)CC1)[C@H](O)c1cc(Cl)cc2cn[nH]c12 [Compound P-0561, (S)-4-(1-(5-chloro-1H-indazol-7-yl)-1-hydroxy-2-methylpropan-2-yl)-N-(3,3,3-trifluoropropyl) piperidine-1-carboxamide]
0.0001 to 10 µM: all assays above

CC(C)(C1CCN(C(=O)NCC(F)(F)F)CC1)[C@H](O)c1cc(Cl)cc2cn[nH]c12 [Compound P-0562, (S)-4-(1-(5-chloro-1H-indazol-7-yl)-1-hydroxy-2-methylpropan-2-yl)-N-(2,2,2-trifluoroethyl) piperidine-1-carboxamide]
0.0001 to 10 µM: all assays above

CC(C)(C1CCN(C(=O)Nc2ccccc2)CC1)[C@H](O)c1cc(Cl)cc2cn[nH]c12 [Compound P-0563, (S)-4-(1-(5-chloro-1H-indazol-7-yl)-1-hydroxy-2-methylpropan-2-yl)-N-phenylpiperidine-1-carboxamide]
0.0001 to 10 µM: all assays above

CC(C)CNC(=O)N1CCC(C(C)(C)[C@H](O)c2cc(Cl)cc3cn[nH]c23)CC1 [Compound P-0564, (S)-4-(1-(5-chloro-1H-indazol-7-yl)-1-hydroxy-2-methylpropan-2-yl)-N-isobutylpiperidine-1-carboxamide]
0.0001 to 10 µM: all assays above

CC(C)(C1CCN(C(=O)NC[C@H]2CCCO2)CC1)[C@H](O)c1cc(Cl)cc2cn[nH]c12 [Compound P-0565, 4-((S)-1-(5-chloro-1H-indazol-7-yl)-1-hydroxy-2-methylpropan-2-yl)-N-(((R)-tetrahydrofuran-2-yl)methyl)piperidine-1-carboxamide]
0.0001 to 10 µM: all assays above

CC(C)(C1CCN(C(=O)NC[C@@H]2CCCO2)CC1)[C@H](O)c1cc(Cl)cc2cn[nH]c12 [Compound P-0566, 4-((S)-1-(5-chloro-1H-indazol-7-yl)-1-hydroxy-2-methylpropan-2-yl)-N-(((S)-tetrahydrofuran-2-yl)methyl)piperidine-1-carboxamide]
0.0001 to 10 µM: all assays above

CCCNC(=O)N1CCC(C(C)(C)[C@H](O)c2cc(Cl)cc3cn[nH]c23)CC1 [Compound P-0567, (S)-4-(1-(5-chloro-1H-indazol-7-yl)-1-hydroxy-2-methylpropan-2-yl)-N-propylpiperidine-1-carboxamide]
0.0001 to 10 µM: all assays above
